Experimental data taken from patent US20140335135A1, “PHARMACEUTICAL COMPOSITION” (FERRING BV, priority 2011, published 2014).

Key:
[1] = Particle size distribution by optical microscopy (diameter of the coextensive circle); format: physicochemical
Method: Two different methods were used to incorporate triptorelin into the hexyl substituted polylactide polymer. The first was a “separate milling and mixing” method in which the triptorelin was micronized using an SPEX 6700 Freezer/mill at −196° C. in liquid nitrogen (milling for 5 min), the resulting micronized powder being mixed with the hexyl substituted polylactide polymer by kneading in plastic bags until a homogeneous formulation was obtained (as verified by optical microscopy).
In the second method, lyophilised triptorelin (10% by weight of polymer or 5% by weight polymer or 2.5% by weight polymer) was incorporated into the polymer by a combined direct “cryo-milling-mixing” technique. The triptorelin was micronized together with the polymer in a cryo-mill (SPEX 6700 Freezer/mill) at −196 C for five minutes in liquid nitrogen. The particle size distribution in the formulations was analysed using an Optishot-2 microscope (Nikon, Tokyo, Japan) and ImageJ software.
The kneading provided a homogenous suspension (FIG. 1a) although the average diameter increased to 9.0 μm because some larger particles of more than 30 μm were formed due to agglomeration.

[2] = Solubility of triptorelin in hexyl substituted polylactide polymer; format: physicochemical
Excerpt: Triptorelin is not soluble in the hexyl substituted polylactide polymer (which is a viscous liquid) because of its relatively high hydrophilicity. The lyophilized triptorelin was therefore micronized, by cryomilling or spray-drying, to ensure small particle size for incorporation into the polymer. Preferably the triptorelin (or salt/derivative thereof) is micronized/mixed with the polylactide at a temperature below the glass transition temperature of the polylactide, more preferably at temperature of around −196° C., so as to avoid melting and resulting increased viscosity of the polylactide.

With `CC(C)C[C@H](NC(=O)[C@@H](Cc1c[nH]c2ccccc12)NC(=O)[C@H](Cc1ccc(O)cc1)NC(=O)[C@H](CO)NC(=O)[C@H](Cc1c[nH]c2ccccc12)NC(=O)[C@H](Cc1c[nH]cn1)NC(=O)[C@@H]1CCC(=O)N1)C(=O)N[C@@H](CCCNC(=N)N)C(=O)N1CCC[C@H]1C(=O)NCC(N)=O` [Triptorelin, L-Pyroglutamyl-L-histidyl-Ltryptophyl-L-seryl-L-tyrosyl-D-tryptophyl-L-eucy-L-arginy-L-prolyl-glycinamide] the “average diameter for the coextensive circle” value [1] was 5.6 μm and the “solubility in the hexyl substituted polylactide polymer” value [2] was “not soluble”.
